The source of these data is patent US20240116985A1, “STAPLED PEPTIDES AND METHODS THEREOF” (priority 2020, published 2024).

A short description of one data set: Solubility in PBS. Type of data set: physicochemical. Conditions: Solubility (uM). Put shortly: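 Steps: ultracentrifuge the peptide PBS solution, inject the supernatant on HPLC, inject a 50 μM peptide DMSO solution as reference, then calculate solubility as area ratio (PBS/DMSO) × 50 uM.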
Data set [1] concerns the target T1, beta-catenin/TCF4 engagement (Homo sapiens, UniProt P35222).
T1 construct: expressed in transfected cells; host or cells: HEK293
T1 sequence (P35222 1-781): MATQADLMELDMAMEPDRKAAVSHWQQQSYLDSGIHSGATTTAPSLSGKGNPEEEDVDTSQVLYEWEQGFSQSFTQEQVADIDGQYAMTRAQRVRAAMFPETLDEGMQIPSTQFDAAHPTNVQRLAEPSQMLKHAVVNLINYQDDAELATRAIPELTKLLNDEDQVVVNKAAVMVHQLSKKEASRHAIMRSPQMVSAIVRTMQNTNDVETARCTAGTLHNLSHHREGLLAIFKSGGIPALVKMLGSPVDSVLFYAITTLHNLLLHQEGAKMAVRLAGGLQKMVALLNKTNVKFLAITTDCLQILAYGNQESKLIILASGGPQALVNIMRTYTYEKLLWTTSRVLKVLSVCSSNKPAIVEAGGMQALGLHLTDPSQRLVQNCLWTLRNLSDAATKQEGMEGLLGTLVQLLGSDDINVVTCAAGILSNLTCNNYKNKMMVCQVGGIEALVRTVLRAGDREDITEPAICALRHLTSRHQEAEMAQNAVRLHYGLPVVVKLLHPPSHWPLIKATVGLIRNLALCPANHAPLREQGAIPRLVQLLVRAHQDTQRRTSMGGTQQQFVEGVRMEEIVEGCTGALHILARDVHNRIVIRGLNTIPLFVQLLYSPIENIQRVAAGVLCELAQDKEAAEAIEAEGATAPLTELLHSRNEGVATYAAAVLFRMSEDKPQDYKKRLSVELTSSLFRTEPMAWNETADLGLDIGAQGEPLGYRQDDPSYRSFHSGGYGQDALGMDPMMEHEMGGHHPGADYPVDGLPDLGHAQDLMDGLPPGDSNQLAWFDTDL
The experiment in a line: Nano-BRET target engagement assay (B-cat-Halo & TCF4-Luc in HEK293 cells). In kind it is cell-based. On the technique in general: In BRET a luciferase serves as donor, and the signal depends on an acceptor being close.

The target of data set [2] is T2, full-length beta-Catenin (Uniprot ID P35222) (Homo sapiens, UniProt P35222).
T2 construct: 10 nM full-length beta-Catenin (Uniprot ID P35222)
T2 sequence (P35222 1-781): T1 sequence (P35222 1-781)
The experiment in a line: Fluorescence polarization IC50 (beta-catenin / 5FAM-TCF4 10-53 competition). In kind it is binding. Conditions: read-out: beta-Catenin FP IC50. In general terms: Fluorescence polarisation rises when a labelled molecule tumbles more slowly, as on binding a larger partner.

Another data set is described as follows: CHI Log D procedure. In kind it is physicochemical. To be noted: pH 7.4, CHI Log D.

Structures are written as SMILES. Values after ≈ are worked out from the molar mass of the structure shown. Read-outs that look alike come from different tables or passages of the source.

Compound `CC(=O)N1CCC[C@]12CC=CCCCC1(CCCC=CCCCOC(=O)N3CC[C@@](C(=O)N[C@@H](Cc4ccsc4)C(=O)N[C@@H](Cc4csc5ccccc45)C(=O)N[C@@H](CCC(N)=O)C(=O)N[C@@H](CCCCNC(=O)CN4CCN(C)CC4)C(N)=O)(C3)NC(=O)[C@H](CC(N)=O)NC(=O)[C@H](Cc3ccccc3)NC(=O)[C@H](C)NC(=O)[C@H](C)NC(=O)[C@H](CC(=O)O)NC(=O)[C@H](CC(=O)O)NC1=O)NC(=O)[C@H](CC(C)(C)C)NC(=O)[C@H](CC(=O)O)NC2=O` (stereo partly drawn) [I-906, Ac-PL3-Asp-Npg-B5-Asp-Asp-Ala-Ala-Phe-Asn-PyrS2-3Thi-BztA-Gln-MePipAc Lys-NH2] had a solubility at 15 min in the data set “Solubility in PBS” of 46 µM (≈ 101 µg/mL). For the same compound, the half-inhibitory concentration (IC50) in data set [1] (read-out: NanoBRET IC50) was over 20000 nM; in data set [2] it was 8 nM. The chromatographic logD in “CHI Log D procedure” is 1.75.

The compound `CC(=O)N1CCC[C@]12CC=CCCCC1(CCCC=CCCCOC(=O)N3CC[C@@](C(=O)N[C@@H](Cc4ccsc4)C(=O)N[C@@H](Cc4csc5ccccc45)C(=O)N[C@@H](CCC(N)=O)C(=O)N[C@@H](CCCCNC(=O)C4CCN(C5CCN(C)CC5)CC4)C(N)=O)(C3)NC(=O)[C@H](CC(N)=O)NC(=O)[C@H](Cc3ccccc3)NC(=O)[C@H](C)NC(=O)[C@H](C)NC(=O)[C@H](CC(=O)O)NC(=O)[C@H](CC(=O)O)NC1=O)NC(=O)[C@H](CC(C)(C)C)NC(=O)[C@H](CC(=O)O)NC2=O` (stereo partly drawn) [I-907, Ac-PL3-Asp-Npg-B5-Asp-Asp-Ala-Ala-Phe-Asn-PyrS2-3Thi-BztA-Gln-[MeBipipAc]Lys-NH2] displayed a Solubility in the data set “Solubility in PBS” of 20 µM (≈ 45.1 µg/mL). For the same compound, the IC50 in data set [1] (read-out: NanoBRET Abs IC50) was found to be 27800 nM; in data set [2], 9 nM. The compound also displayed a chromatographic logD in the data set “CHI Log D procedure” of 1.8.

Regarding `CC(=O)N1CCC[C@]12CC=CCCCC1(CCCC=CCCCOC(=O)N3CC[C@@](C(=O)N[C@@H](Cc4ccsc4)C(=O)N[C@@H](Cc4csc5ccccc45)C(=O)N[C@@H](CCC(N)=O)C(=O)N[C@@H](CCCCNC(=O)c4ccc(CN5CCN(C)CC5)cc4)C(N)=O)(C3)NC(=O)[C@H](CC(N)=O)NC(=O)[C@H](Cc3ccccc3)NC(=O)[C@H](C)NC(=O)[C@H](C)NC(=O)[C@H](CC(=O)O)NC(=O)[C@H](CC(=O)O)NC1=O)NC(=O)[C@H](CC(C)(C)C)NC(=O)[C@H](CC(=O)O)NC2=O` (stereo partly drawn) [I-908, Ac-PL3-Asp-Npg-B5-Asp-Asp-Ala-Ala-Phe-Asn-PyrS2-3Thi-BztA-Gln-[4MePipBz]Lys-NH2], the Solubility in “Solubility in PBS” was 44 µM (≈ 99.6 µg/mL). The 50% inhibitory concentration (IC50) in data set [1] (read-out: NanoBRET Abs IC50) came to 26000 nM; in data set [2], 10 nM. Moreover, the chromatographic logD in “CHI Log D procedure” is 1.82.

`CC(=O)N1CCC[C@]12CC=CCCCC1(CCCC=CCCCOC(=O)N3CC[C@@](C(=O)N[C@@H](Cc4ccsc4)C(=O)N[C@@H](Cc4csc5ccccc45)C(=O)N[C@@H](CCC(N)=O)C(=O)N[C@@H](CCCCNC(=O)c4ccc(CN5CCOCC5)cc4)C(N)=O)(C3)NC(=O)[C@H](CC(N)=O)NC(=O)[C@H](Cc3ccccc3)NC(=O)[C@H](C)NC(=O)[C@H](C)NC(=O)[C@H](CC(=O)O)NC(=O)[C@H](CC(=O)O)NC1=O)NC(=O)[C@H](CC(C)(C)C)NC(=O)[C@H](CC(=O)O)NC2=O` (stereo partly drawn) [I-909, Ac-PL3-Asp-Npg-B5-Asp-Asp-Ala-Ala-Phe-Asn-PyrS2-3Thi-BztA-Gln-[MeMorphBz]Lys-NH2]: the concentration in solution in “Solubility in PBS” (Solubility) came to 44 µM (≈ 99 µg/mL). Moreover, the IC50 stood at 28400 nM in data set [1] (read-out: NanoBRET Abs IC50) and 8 nM in data set [2]. In “CHI Log D procedure”, the chromatographic logD came out at 1.93.

In “Solubility in PBS”, `CC(=O)N1CCC[C@]12CC=CCCCC1(CCCC=CCCCOC(=O)N3CC[C@@](C(=O)N[C@@H](Cc4ccsc4)C(=O)N[C@@H](Cc4csc5ccccc45)C(=O)N[C@@H](CCC(N)=O)C(=O)N[C@@H](CCCCNC(=O)c4ccc(CN(C)C)cc4)C(N)=O)(C3)NC(=O)[C@H](CC(N)=O)NC(=O)[C@H](Cc3ccccc3)NC(=O)[C@H](C)NC(=O)[C@H](C)NC(=O)[C@H](CC(=O)O)NC(=O)[C@H](CC(=O)O)NC1=O)NC(=O)[C@H](CC(C)(C)C)NC(=O)[C@H](CC(=O)O)NC2=O` (stereo partly drawn) [I-910, Ac-PL3-Asp-Npg-B5-Asp-Asp-Ala-Ala-Phe-Asn-PyrS2-3Thi-BztA-Gln-[Me2NCBz]Lys-NH2] gave a Solubility of 40 µM (≈ 88.3 µg/mL). Further, the IC50 in data set [1] (read-out: NanoBRET Abs IC50) amounted to 29800 nM; in data set [2] it was 10 nM. This compound displayed a chromatographic logD in the data set “CHI Log D procedure” of 1.84.

In turn, `COCCOCCOCCOCCOCCOCCC(=O)NCCCC[C@H](NC(=O)[C@H](CCC(N)=O)NC(=O)[C@H](Cc1csc2ccccc12)NC(=O)[C@H](Cc1ccsc1)NC(=O)[C@]12CCN(C1)C(=O)OCCCC=CCCCC1(CCCC=CC[C@]3(CCCN3C(C)=O)C(=O)N[C@@H](CC(=O)O)C(=O)N[C@@H](CC(C)(C)C)C(=O)N1)C(=O)N[C@@H](CC(=O)O)C(=O)N[C@@H](CC(=O)O)C(=O)N[C@@H](C)C(=O)N[C@@H](C)C(=O)N[C@@H](Cc1ccccc1)C(=O)N[C@@H](CC(N)=O)C(=O)N2)C(N)=O` (stereo partly drawn) [I-913, Ac-PL3-Asp-Npg-B5-Asp-Asp-Ala-Ala-Phe-Asn-PyrS2-3Thi-BztA-Gln-[mPEG6]Lys-NH2] showed a Solubility in the data set “Solubility in PBS” of 49 µM (≈ 115 µg/mL). The IC50 in data set [1] (read-out: NanoBRET Abs IC50) was 26400 nM; in data set [2], 10 nM. For the same compound, the chromatographic logD in “CHI Log D procedure” was determined as 1.82.

Compound `CC(=O)N1CCC[C@]12CC=CCCCC1(CCCC=CCCCOC(=O)N3CC[C@@](C(=O)N[C@@H](Cc4ccsc4)C(=O)N[C@@H](Cc4csc5ccccc45)C(=O)N[C@@H](CCC(N)=O)C(=O)N[C@@H](CCCCNC(=O)c4ccc5ccccc5c4)C(N)=O)(C3)NC(=O)[C@H](CC(N)=O)NC(=O)[C@H](Cc3ccccc3)NC(=O)[C@H](C)NC(=O)[C@H](C)NC(=O)[C@H](CC(=O)O)NC(=O)[C@H](CC(=O)O)NC1=O)NC(=O)[C@H](CC(C)(C)C)NC(=O)[C@H](CC(=O)O)NC2=O` (stereo partly drawn) [I-915, Ac-PL3-Asp-Npg-B5-Asp-Asp-Ala-Ala-Phe-Asn-PyrS2-3Thi-BztA-Gln-[2Napc]Lys-NH2] showed a Solubility in “Solubility in PBS” of 41 µM (≈ 90.2 µg/mL). The concentration for half-maximal inhibition (IC50) was 15500 nM in data set [1] (read-out: NanoBRET Abs IC50) and 28 nM in data set [2]. For the same compound, in “CHI Log D procedure”, the chromatographic logD is 2.33.

In “Solubility in PBS”, `CCCC(=O)NCCCC[C@H](NC(=O)[C@H](CCC(N)=O)NC(=O)[C@H](Cc1csc2ccccc12)NC(=O)[C@H](Cc1ccsc1)NC(=O)[C@]12CCN(C1)C(=O)OCCCC=CCCCC1(CCCC=CC[C@]3(CCCN3C(C)=O)C(=O)N[C@@H](CC(=O)O)C(=O)N[C@@H](CC(C)(C)C)C(=O)N1)C(=O)N[C@@H](CC(=O)O)C(=O)N[C@@H](CC(=O)O)C(=O)N[C@@H](C)C(=O)N[C@@H](C)C(=O)N[C@@H](Cc1ccccc1)C(=O)N[C@@H](CC(N)=O)C(=O)N2)C(N)=O` (stereo partly drawn) [I-917, Ac-PL3-Asp-Npg-B5-Asp-Asp-Ala-Ala-Phe-Asn-PyrS2-3Thi-BztA-Gln-[Bua]Lys-NH2] showed a Solubility of 44 µM (≈ 93.1 µg/mL). In addition, the 50% inhibitory concentration (IC50) in data set [1] (read-out: NanoBRET Abs IC50) was found to be 19700 nM; in data set [2], 12 nM. In addition, the chromatographic logD in “CHI Log D procedure” is 2.15.

In the data set “Solubility in PBS”, `CCCCCCCC(=O)NCCCC[C@H](NC(=O)[C@H](CCC(N)=O)NC(=O)[C@H](Cc1csc2ccccc12)NC(=O)[C@H](Cc1ccsc1)NC(=O)[C@]12CCN(C1)C(=O)OCCCC=CCCCC1(CCCC=CC[C@]3(CCCN3C(C)=O)C(=O)N[C@@H](CC(=O)O)C(=O)N[C@@H](CC(C)(C)C)C(=O)N1)C(=O)N[C@@H](CC(=O)O)C(=O)N[C@@H](CC(=O)O)C(=O)N[C@@H](C)C(=O)N[C@@H](C)C(=O)N[C@@H](Cc1ccccc1)C(=O)N[C@@H](CC(N)=O)C(=O)N2)C(N)=O` (stereo partly drawn) [I-918, Ac-PL3-Asp-Npg-B5-Asp-Asp-Ala-Ala-Phe-Asn-PyrS2-3Thi-BztA-Gln-[Oct]Lys-NH2] came in with a Solubility of 44 µM (≈ 95.6 µg/mL). For the same compound, the values for the 50% inhibitory concentration (IC50) in data set [1] (read-out: NanoBRET Abs IC50) and in data set [2] were 11100 nM and 33 nM, respectively. The same compound came in with a chromatographic logD in “CHI Log D procedure” of 2.49.

Broadly, the solubility is how much of the substance goes into solution per volume. As a reminder, the IC50 is the concentration needed to halve the response being measured. One may read the chromatographic logD as lipophilicity estimated from chromatographic retention. Lower therefore signals lower lipophilicity. A word on the Solubility: it is the dissolved amount per volume that the medium holds.
